For one data set, the system named is Pyricularia oryzae. The class given is in vivo. Conditions: Pyricularia oryzae on rice cv. Sasanishiki; 0.02% active substance, spray.
The subject of data set [1] is Pyrenophora teres (Helminthosporium). The data set is described as follows: Assay B-10: Effect against Pyrenophora teres (Helminthosporium)/barley (net blotch on barley). The class given is in vivo. To be noted: Pyrenophora teres on barley cv. Regina, 0.02% active substance, spray; for pest or weed control at 0.02 % strength: 96 h, read-out: B10 activity. As to the method: Assay B-10: Effect Against Pyrenophora teres (Helminthosporium)/Barley (Net Blotch on Barley) 1 week old barley plants cv. Regina are treated with a formulated testcompound (0.02% active substance) in a spray chamber. Two days after application barley plants are inoculated by spraying a spore suspension (3×10^4 conidia/ml) on the test plants. After an incubation period of 2 days at 20° C. and 95% r.h. plants are kept for 2 days at 20° C. and 60% r.h. in a greenhouse. The disease incidence is assessed 4 days after inoculation.

In the next data set the test system is Septoria nodorum. Description: Assay B-12: Effect against Septoria nodorum/wheat (Septoria leaf spot on wheat). The class given is in vivo. To be noted: Septoria nodorum on wheat cv. Arina, 0.02% active substance, spray; for pest or weed control at 0.02 % strength: Parastagonospora nodorum, 264 h, read-out: B12 activity. As to the method: Assay B-12: Effect Against Septoria nodorum/Wheat (Septoria Leaf Spot on Wheat) 1 week old wheat plants cv. Arina are treated with a formulated test compound (0.02% active substance) in a spray chamber. One day after application wheat plants are inoculated by spraying a spore suspension (5×10^5 conidia/ml) on the test plants. After an incubation period of 1 day at 20° C. and 95% r.h. plants are kept for 10 days at 20° C. and 60% r.h. in a greenhouse. The disease incidence is assessed 11 days after inoculation.

For data set [2], the system named is Botrytis cinerea. Description: Assay B-8: Effect against Botrytis cinerea/tomato (Botrytis on tomatoes). To be noted: Botrytis cinerea on tomato cv. Roter Gnom; 0.02% active substance, spray. The class given is in vivo. As to the method:
Assay B-8: Effect Against Botrytis cinerea/Tomato (Botrytis on Tomatoes) 4 week old tomato plants cv. Roter Gnom are treated with the formulated testcompound 0.02% active substance) in a spray chamber. Two days after application tomato plants are inoculated by spraying a spore suspension (1×10^5 conidia/ml) on the test plants. After an incubation period of 4 days at 20° C. and 95% r. h. in a greenhouse the disease incidence is assessed.

Data set [3] has as its system Botrytis cinerea. The data set is described as follows: Assay B-7: Botrytis cinerea/grape (Botrytis on grapes). The class given is in vivo. To be noted: Botrytis cinerea on grape seedlings cv. Gutedel; 0.02% active substance, spray. The procedure:
Assay B-7: Botrytis cinerea/Grape (Botrytis on Grapes) 5 week old grape seedlings cv. Gutedel are treated with the formulated testcompound (0.02% active substance) in a spray chamber. Two days after application grape plants are inoculated by spraying a spore suspension (1×10^6 conidia/ml) on the test plants. After an incubation period of 4 days at 21° C. and 95% r. h. in a greenhouse the disease incidence is assessed.

The subject of the next data set is Venturia inaegualis. The data set is described as follows: Assay B-5: Residual protective activity against Venturia inaegualis on apples (scab on apple). It is filed as in vivo. Conditions: Venturia inaegualis on apple seedlings cv. McIntosh; 0.02% active substance, spray. As to the method: Assay B-5: Residual Protective Activity Against Venturia inaegualis on Apples (Scab on Apple) 4 week old apple seedlings cv. McIntosh are treated with the formulated testcompound (0.02% active substance) in a spray chamber. One day after application apple plants are inoculated by spraying a spore suspension (4×10^5 conidia/ml) on the test plants. After an incubation period of 4 days at 21° C. and 95% r. h. the plants are placed for 4 days at 21° C. and 60% r. h. in a greenhouse. After another 4 day incubation period at 21° C. and 95% r. h. the disease incidence is assessed.

A further data set deals with Erysiphe graminis. Description: Assay B-6: Effect against Erysiphe graminis on barley (powdery mildew); residual protective / systemic activity. The class given is in vivo. Conditions: 0.02% active substance spray (residual) or 0.002% soil (systemic), variant not stated. As to the method:
Assay B-6: Effect Against Erysiphe graminis on Barley (Powdery Mildew on Barley) a) Residual Protective Activity […] The infected plants are placed in a greenhouse at 22°. 12 days after infection, the fungal attack is evaluated. b) Systemic Activity […] […] 48 hours later, the plants are dusted with conidia of the fungus. The infected plants are placed in a greenhouse at 22° C. 12 days after infection, the disease incidence is evaluated.

Where a name gives a salt, the structure may show the parent alone.

The source of these data is patent US7109197B2, “N-phenyl-4-(4-pyridyl)-2-pyrimidineamine derivatives” (Syngenta Crop Protection, Inc., priority 2000, dated 2006).

`OCCCNc1cc(-c2ccnc(Nc3cccc(Cl)c3)n2)ccn1` [Compound 46]: the B9 activity result in the data set with Pyricularia oryzae is reported as “+ (the activity observed in the corresponding test system is 70% or more)”. For the same molecule, the B10 activity entry in data set [1] is “+ (the activity observed in the corresponding test system is 70% or more)”. In addition, the B12 activity entry with Septoria nodorum is recorded as “+ (the activity observed in the corresponding test system is 70% or more)”.

Broadly, the melting point is the temperature, or range, at which the solid turns liquid. `CNc1cc(-c2ccnc(Nc3cccc(Cl)c3)n2)ccn1` [Compound 64]: the melting point was in the range of 196 to 197 °C. The B8 activity entry with Botrytis cinerea [2] is recorded as “+ (the activity observed in the corresponding test system is 70% or more)”. Besides, in data set [1], the pest or weed control at 0.02 % strength was more than 70%. Also, the pest or weed control at 0.02 % strength with Septoria nodorum was more than 70%.

The molecule `NNc1cc(-c2ccnc(Nc3cccc(Cl)c3)n2)ccn1` [Compound 22] displayed a melting point of 201 to 203 °C. Further, in data set [1], the pest or weed control at 0.02 % strength was more than 70%.

For `CC(CO)Nc1cc(-c2ccnc(Nc3cccc(Cl)c3)n2)ccn1` (centres unmarked) [Compound 39], in the data set on Botrytis cinerea [3], the B7 activity entry is recorded as “+ (the activity observed in the corresponding test system is 70% or more)”. Further, the B8 activity entry in the data set on Botrytis cinerea [2] was “+ (the activity observed in the corresponding test system is 70% or more)”. Besides, the B9 activity entry in the data set with Pyricularia oryzae is listed as “+ (the activity observed in the corresponding test system is 70% or more)”. Also, in data set [1], the B10 activity result is recorded as “+ (the activity observed in the corresponding test system is 70% or more)”. Moreover, the B12 activity entry in the data set on Septoria nodorum is given as “+ (the activity observed in the corresponding test system is 70% or more)”.

As for `Clc1cccc(Nc2nccc(-c3ccnc(N4CCOCC4)c3)n2)c1` [Compound 17], the melting point lay in the range of 175 to 176 °C.

Turning to `CCC(=O)Nc1cc(-c2ccnc(Nc3cccc(Cl)c3)n2)ccn1` [Compound 96], the melting point lay in the range of 215 to 216 °C. The B5 activity result with Venturia inaegualis was “+ (the activity observed in the corresponding test system is 70% or more)”. Moreover, in data set [1], the pest or weed control at 0.02 % strength was more than 70%. The pest or weed control at 0.02 % strength in the data set on Septoria nodorum is more than 70%.

On to `Clc1cccc(Nc2nccc(-c3ccnc(NCCCN4CCOCC4)c3)n2)c1` [Compound 8], for which the B6 activity result in the data set with Erysiphe graminis is reported as “+ (the activity observed in the corresponding test system is 70% or more)”. Moreover, the B8 activity result in the data set on Botrytis cinerea [2] was “+ (the activity observed in the corresponding test system is 70% or more)”.

On to `CC(C)(C)Nc1cc(-c2ccnc(Nc3cccc(Cl)c3)n2)ccn1` [Compound 70], for which the melting point is 125 to 126 °C. For the same molecule, the B8 activity entry in the data set on Botrytis cinerea [2] is “+ (the activity observed in the corresponding test system is 70% or more)”. Besides, the pest or weed control at 0.02 % strength in data set [1] is more than 70%. Besides, in the data set on Septoria nodorum, the pest or weed control at 0.02 % strength is more than 70%.

As to `Cl.Clc1cccc(Nc2nccc(-c3ccnc(NC4CCOC4)c3)n2)c1` (centres unmarked) [Compound 125], in the data set on Botrytis cinerea [2], the B8 activity entry is on record as “+ (the activity observed in the corresponding test system is 70% or more)”. Further, the B9 activity result with Pyricularia oryzae was “+ (the activity observed in the corresponding test system is 70% or more)”. Further, the B10 activity result in data set [1] was “+ (the activity observed in the corresponding test system is 70% or more)”. Further, the B12 activity entry with Septoria nodorum is recorded as “+ (the activity observed in the corresponding test system is 70% or more)”.

Turning to `CCOC(=O)Nc1cc(-c2ccnc(Nc3cccc(Cl)c3)n2)ccn1` [Compound 121], the B9 activity entry in the data set on Pyricularia oryzae is “+ (the activity observed in the corresponding test system is 70% or more)”. In data set [1], the B10 activity entry was “+ (the activity observed in the corresponding test system is 70% or more)”.

Take `Clc1cccc(Nc2nccc(-c3ccnc(NCC4CCCO4)c3)n2)c1` (centres unmarked) [Compound 75]: the B5 activity result with Venturia inaegualis is reported as “+ (the activity observed in the corresponding test system is 70% or more)”. The B7 activity entry with Botrytis cinerea [3] is on record as “+ (the activity observed in the corresponding test system is 70% or more)”. In the data set with Botrytis cinerea [2], the B8 activity result was “+ (the activity observed in the corresponding test system is 70% or more)”. The B10 activity entry in data set [1] is reported as “+ (the activity observed in the corresponding test system is 70% or more)”. The B12 activity result in the data set on Septoria nodorum is reported as “+ (the activity observed in the corresponding test system is 70% or more)”.

As for `Clc1cccc(Nc2nccc(-c3ccnc(N4CCNCC4)c3)n2)c1` [Compound 21], the melting point fell in the range of 103 to 104 °C.

As to `Clc1cccc(Nc2nccc(-c3ccnc(NCCCn4ccnc4)c3)n2)c1` [Compound 43], in the data set with Botrytis cinerea [3], the B7 activity entry is “+ (the activity observed in the corresponding test system is 70% or more)”. For the same molecule, the B8 activity result in the data set with Botrytis cinerea [2] is recorded as “+ (the activity observed in the corresponding test system is 70% or more)”. For the same molecule, in the data set with Pyricularia oryzae, the B9 activity result is “+ (the activity observed in the corresponding test system is 70% or more)”. In addition, in data set [1], the B10 activity entry is recorded as “+ (the activity observed in the corresponding test system is 70% or more)”. Also, the B12 activity result in the data set with Septoria nodorum is given as “+ (the activity observed in the corresponding test system is 70% or more)”.

In the case of `CCNc1cc(-c2ccnc(Nc3cccc(Cl)c3)n2)ccn1` [Compound 60], the melting point is 201 °C. Moreover, in the data set on Venturia inaegualis, the B5 activity result was “+ (the activity observed in the corresponding test system is 70% or more)”. Also, in the data set with Botrytis cinerea [3], the B7 activity entry was “+ (the activity observed in the corresponding test system is 70% or more)”. Moreover, in the data set with Botrytis cinerea [2], the B8 activity entry is reported as “+ (the activity observed in the corresponding test system is 70% or more)”. In addition, the pest or weed control at 0.02 % strength in data set [1] was more than 70%. Besides, the pest or weed control at 0.02 % strength in the data set on Septoria nodorum is more than 70%.

Regarding `C=CCNc1cc(-c2ccnc(Nc3cccc(Cl)c3)n2)ccn1` [Compound 69], in the data set on Venturia inaegualis, the B5 activity result is “+ (the activity observed in the corresponding test system is 70% or more)”. The B7 activity result in the data set with Botrytis cinerea [3] is “+ (the activity observed in the corresponding test system is 70% or more)”. Moreover, the B8 activity entry in the data set with Botrytis cinerea [2] is “+ (the activity observed in the corresponding test system is 70% or more)”. Moreover, in data set [1], the B10 activity entry is on record as “+ (the activity observed in the corresponding test system is 70% or more)”. Moreover, the B12 activity entry in the data set on Septoria nodorum is on record as “+ (the activity observed in the corresponding test system is 70% or more)”.

Take `O=C(Nc1cc(-c2ccnc(Nc3cccc(Cl)c3)n2)ccn1)C(F)(F)F` [Compound 63]: the melting point lay in the range of 180 to 181 °C. In the data set on Venturia inaegualis, the B5 activity entry was “+ (the activity observed in the corresponding test system is 70% or more)”. Also, the B7 activity result with Botrytis cinerea [3] is given as “+ (the activity observed in the corresponding test system is 70% or more)”. Besides, the B8 activity entry with Botrytis cinerea [2] is “+ (the activity observed in the corresponding test system is 70% or more)”. The B9 activity result with Pyricularia oryzae is on record as “+ (the activity observed in the corresponding test system is 70% or more)”. Also, the pest or weed control at 0.02 % strength in data set [1] was more than 70%. For the same molecule, the pest or weed control at 0.02 % strength in the data set on Septoria nodorum was more than 70%.

Molecule `CC(C)Nc1cc(-c2ccnc(Nc3cccc(Cl)c3)n2)ccn1` (as salt: HCl) [Compound 82] registered a melting point of 88 to 89 °C.

Consider `Clc1cccc(Nc2nccc(-c3ccnc(NCCN4CCOCC4)c3)n2)c1` [Compound 20], for which, in the data set on Erysiphe graminis, the B6 activity entry is “+ (the activity observed in the corresponding test system is 70% or more)”. In addition, in the data set on Botrytis cinerea [2], the B8 activity entry is given as “+ (the activity observed in the corresponding test system is 70% or more)”. In addition, the B10 activity result in data set [1] was “+ (the activity observed in the corresponding test system is 70% or more)”. In addition, the B12 activity entry in the data set on Septoria nodorum is “+ (the activity observed in the corresponding test system is 70% or more)”.
